In assay [1] the target is human Bub1 (Homo sapiens (Human), UniProt O43683). Put plainly: Bub1 kinase assay (TR-FRET). The assay is classed as biochemical. To be noted: 10 μM ATP; read-out: Bub1 avg (IC50 [mol/l]). A digest of the protocol:
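His6-tagged human Bub1 catalytic domain (aa 704-1085, insect-cell expressed, ~200 ng/ml) preincubated with compound 15 min, then reacted 60 min at 22 °C with 10 μM ATP and 1 μM biotinylated peptide (final) in pH 7.5 Tris buffer. Phosphopeptide detected by TR-FRET 665/620 ratio, normalised to no-inhibitor and no-enzyme controls.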
For orientation: TR-FRET usually uses a lanthanide donor and a delayed reading to cut background.

Assay [2] deals with HeLa. Put plainly: Proliferation assay (crystal violet), HeLa. It counts as cell-based. The note with it: Homo sapiens, 96 h, 4 days, read-out: Inhibition of proliferation IC50 HeLa. The method, boiled down:
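Tumour cells seeded at 1000–5000 cells/well in medium with 10% FCS, dosed after 24 h at 0.001–10 μM (0.5% DMSO final) for 4 days. Cell number read by crystal-violet staining after glutaraldehyde fixation (A595), normalised to zero-point plate (0%) and untreated cells (100%); IC50 from 4-parameter fit.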

IC50 data for 30 compounds are collected here from patent US9682995B2, “Amino-substituted isothiazoles” (BAYER PHARMA AKTIENGESELLSCHAFT, priority 2013, dated 2017).

Sequence of human Bub1 (O43683 704-1085): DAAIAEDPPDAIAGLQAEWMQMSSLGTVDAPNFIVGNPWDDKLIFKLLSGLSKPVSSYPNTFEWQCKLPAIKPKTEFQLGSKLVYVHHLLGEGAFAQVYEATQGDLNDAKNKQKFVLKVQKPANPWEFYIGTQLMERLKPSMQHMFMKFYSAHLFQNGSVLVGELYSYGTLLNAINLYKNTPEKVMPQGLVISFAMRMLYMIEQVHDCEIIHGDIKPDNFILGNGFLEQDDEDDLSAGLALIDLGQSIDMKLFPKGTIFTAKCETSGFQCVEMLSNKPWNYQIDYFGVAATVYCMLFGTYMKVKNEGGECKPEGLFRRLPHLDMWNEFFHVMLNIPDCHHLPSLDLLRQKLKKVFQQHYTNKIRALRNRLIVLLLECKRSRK

Regarding `CCc1cncc(Nc2snc(C)c2C(=O)Nc2ccc(F)c(F)c2)n1` [Example 76, N-(3,4-Difluorophenyl)-5-[(6-ethylpyrazin-2-yl)amino]-3-methyl-1,2-thiazole-4-carboxamide], the IC50 is more than 20 µM in assay [1] and 2.6 µM in assay [2]. `CNC(=O)c1ccc(Nc2snc(C)c2C(=O)Nc2ccc(F)c(F)c2)nn1` [Example 80, 6-({4-[(3,4-Difluorophenyl)carbamoyl]-3-methyl-1,2-thiazol-5-yl}amino)-N-methylpyridazine-3-carboxamide]: the IC50 is more than 20 µM in assay [1] and 4.4 µM in assay [2]. Regarding `Cc1nsc(Nc2cncc(-n3cccn3)n2)c1C(=O)Nc1ccc(F)c(F)c1` [Example 64, N-(3,4-Difluorophenyl)-3-methyl-5-{[6-(1H-pyrazol-1-yl)pyrazin-2-yl]amino}-1,2-thiazole-4-carboxamide], the IC50 in assay [2] was 1.6 µM. For `Cc1nsc(Nc2cnc3cc(C(F)(F)F)ccc3n2)c1C(=O)Nc1ccc(Cl)c(Cl)c1` [Example 61, N-(3,4-Dichlorophenyl)-3-methyl-5-{[6-(trifluoromethyl)quinoxalin-2-yl]amino}-1,2-thiazole-4-carboxamide], the IC50 in assay [1] was more than 20 µM; in assay [2], 7.7 µM. The like results for `Cc1nsc(Nc2cncc(C(F)(F)F)n2)c1C(=O)Nc1ccc(F)c(F)c1` [Example 82, N-(3,4-Difluorophenyl)-3-methyl-5-{[6-(trifluoromethyl)pyrazin-2-yl]amino}-1,2-thiazole-4-carboxamide] were, in that order, 15 µM and 0.11 µM. The corresponding values for `COc1ccc(NC(=O)c2c(C)nsc2Nc2nc3ccc(F)cc3s2)cn1` [Example 88, 5-[(6-Fluoro-1,3-benzothiazol-2-yl)amino]-N-(6-methoxypyridin-3-yl)-3-methyl-1,2-thiazole-4-carboxamide] are 17 µM and 2.1 µM. The like results for `CNC(=O)c1cncc(Nc2snc(C)c2C(=O)Nc2ccc(F)c(F)c2)n1` [Example 70, 6-({4-[(3,4-Difluorophenyl)carbamoyl]-3-methyl-1,2-thiazol-5-yl}amino)-N-methylpyrazine-2-carboxamide] were, in that order, 1.7 µM and 6.4 µM. On to `CCc1cnc(Nc2snc(C)c2C(=O)Nc2ccc(F)c(F)c2)cn1` [Example 79, N-(3,4-Difluorophenyl)-5-[(5-ethylpyrazin-2-yl)amino]-3-methyl-1,2-thiazole-4-carboxamide], for which the IC50 in assay [1] was more than 20 µM; in assay [2], 0.8 µM. For the compound `CCc1ccccc1NC(=O)c1c(C)nsc1Nc1cnc2cc(Cl)ccc2n1` [Example 86, 5-[(6-Chloroquinoxalin-2-yl)amino]-N-(2-ethylphenyl)-3-methyl-1,2-thiazole-4-carboxamide], the IC50 in assay [1] is more than 20 µM; in assay [2] it was 1 µM. Turning to `COc1ccc(NC(=O)c2c(C)nsc2Nc2ncc(C(=O)N3CCOCC3)s2)cc1F` [Example 93, N-(3-Fluoro-4-methoxyphenyl)-3-methyl-5-{[5-(morpholin-4-ylcarbonyl)-1,3-thiazol-2-yl]amino}-1,2-thiazole-4-carboxamide], the IC50 in assay [1] was more than 20 µM; in assay [2] it was 10 µM.

For `CCc1ccccc1NC(=O)c1c(C)nsc1Nc1ncccc1C(F)(F)F` [Example 3, N-(2-Ethylphenyl)-3-methyl-5-{[3-(trifluoromethyl)pyridin-2-yl]amino}-1,2-thiazole-4-carboxamide], the results for the IC50 in assay [1] and in assay [2] were more than 20 µM and 7.7 µM, respectively. Turning to `Cc1nsc(Nc2cnc(Br)cn2)c1C(=O)Nc1ccc(F)c(F)c1` [Example 77, 5-[(5-Bromopyrazin-2-yl)amino]-N-(3,4-difluorophenyl)-3-methyl-1,2-thiazole-4-carboxamide], the IC50 was more than 20 µM in assay [1] and 0.2 µM in assay [2]. `CNC(=O)c1cnc(Nc2snc(C)c2C(=O)Nc2ccc(F)c(F)c2)cn1` [Example 75, 5-({4-[(3,4-Difluorophenyl)carbamoyl]-3-methyl-1,2-thiazol-5-yl}amino)-N-methylpyrazine-2-carboxamide]: the IC50 was more than 20 µM in assay [1] and 1.9 µM in assay [2]. Turning to `Cc1nsc(Nc2cnccn2)c1C(=O)Nc1ccc(F)c(F)c1` [Example 65, N-(3,4-Difluorophenyl)-3-methyl-5-(pyrazin-2-ylamino)-1,2-thiazole-4-carboxamide], the IC50 was more than 20 µM in assay [1] and 2.8 µM in assay [2]. The like results for `COc1ccc(NC(=O)c2c(C)nsc2Nc2cnc(C(F)(F)F)cn2)cn1` [Example 85, N-(6-methoxypyridin-3-yl)-3-methyl-5-{[5-(trifluoromethyl)pyrazin-2-yl]amino}-1,2-thiazole-4-carboxamide] were, in that order, more than 20 µM and 1 µM. For `Cc1nsc(Nc2ccc(C(F)(F)F)nn2)c1C(=O)Nc1ccc(F)c(F)c1` [Example 83, N-(3,4-Difluorophenyl)-3-methyl-5-{[6-(trifluoromethyl)pyridazin-3-yl]amino}-1,2-thiazole-4-carboxamide], the IC50 is more than 20 µM in assay [1] and 0.92 µM in assay [2]. In the case of `Cc1nsc(Nc2cnc(C(F)(F)F)cn2)c1C(=O)Nc1ccc(F)c(F)c1` [Example 81, N-(3,4-Difluorophenyl)-3-methyl-5-{[5-(trifluoromethyl)pyrazin-2-yl]amino}-1,2-thiazole-4-carboxamide], the IC50 was more than 20 µM in assay [1] and 0.38 µM in assay [2]. For the compound `CCOC(=O)c1sc(Nc2snc(C)c2C(=O)Nc2ccc(Cl)c(F)c2)nc1C` [Example 95, Ethyl 2-({4-[(4-chloro-3-fluoro-phenyl)carbamoyl]-3-methyl-1,2-thiazol-5-yl}amino)-4-methyl-1,3-thiazole-5-carboxylate], the IC50 is more than 20 µM in assay [1] and 1.2 µM in assay [2]. For `Cc1nsc(Nc2cnc3cc(C(F)(F)F)ccc3n2)c1C(=O)Nc1ccc(F)c(F)c1` [Example 60, N-(3,4-Difluorophenyl)-3-methyl-5-{[6-(trifluoromethyl)quinoxalin-2-yl]amino}-1,2-thiazole-4-carboxamide], the IC50 is more than 20 µM in assay [1] and 0.73 µM in assay [2]. As to `COc1ccc(NC(=O)c2c(C)nsc2Nc2cnc3ccccc3n2)cn1` [Example 94, N-(6-Methoxypyridin-3-yl)-3-methyl-5-(quinoxalin-2-ylamino)-1,2-thiazole-4-carboxamide], the IC50 is more than 20 µM in assay [1] and 10 µM in assay [2]. For `Cc1nsc(Nc2nc3c(C(F)(F)F)ccnc3s2)c1C(=O)Nc1ccc(F)c(F)c1` [Example 58, N-(3,4-Difluorophenyl)-3-methyl-5-{[7-(trifluoromethyl)[1,3]thiazolo[5,4-b]pyridin-2-yl]amino}-1,2-thiazole-4-carboxamide], the results for the IC50 in assay [1] and in assay [2] were more than 20 µM and 1.5 µM, respectively. Regarding `CCOC(=O)c1cnc(Nc2snc(C)c2C(=O)Nc2ccccc2CC)s1` [Example 92, Ethyl 2-({4-[(2-ethylphenyl)-carbamoyl]-3-methyl-1,2-thiazol-5-yl}amino)-1,3-thiazole-5-carboxylate], the IC50 in assay [1] is more than 20 µM; in assay [2], 10 µM.

In the case of `COC(=O)c1cncc(Nc2snc(C)c2C(=O)Nc2ccc(F)c(F)c2)n1` [Example 66, Methyl 6-({4-[(3,4-difluorophenyl)carbamoyl]-3-methyl-1,2-thiazol-5-yl}amino)-pyrazine-2-carboxylate], the IC50 is more than 20 µM in assay [1] and 2.6 µM in assay [2]. The like results for `COc1cncc(Nc2snc(C)c2C(=O)Nc2ccc(F)c(F)c2)n1` [Example 72, N-(3,4-Difluorophenyl)-5-[(6-methoxypyrazin-2-yl)amino]-3-methyl-1,2-thiazole-4-carboxamide] were, in that order, more than 20 µM and 1.7 µM.

Regarding `Cc1nsc(Nc2cncc(-c3ncco3)n2)c1C(=O)Nc1ccc(Cl)c(F)c1` [Example 63, N-(4-Chloro-3-fluorophenyl)-3-methyl-5-{[6-(1,3-oxazol-2-yl)pyrazin-2-yl]amino}-1,2-thiazole-4-carboxamide], the IC50 in assay [1] is more than 20 µM; in assay [2], 4.1 µM. Take `COC(=O)c1cnc(Nc2snc(C)c2C(=O)Nc2ccc(F)c(F)c2)cn1` [Example 59, Methyl 5-({4-[(3,4-difluorophenyl)carbamoyl]-3-methyl-1,2-thiazol-5-yl}amino)-pyrazine-2-carboxylate]: the IC50 is more than 20 µM in assay [1] and 0.99 µM in assay [2]. With `CCc1ccccc1NC(=O)c1c(C)nsc1Nc1ccncn1` [Example 2, N-(2-Ethylphenyl)-3-methyl-5-(pyrimidin-4-ylamino)-1,2-thiazole-4-carboxamide], the IC50 was more than 20 µM in assay [1] and more than 10 µM in assay [2]. Turning to `CCc1ccccc1NC(=O)c1c(C)nsc1Nc1cc(C#N)ccn1` [Example 4, 5-[(4-Cyanopyridin-2-yl)amino]-N-(2-ethylphenyl)-3-methyl-1,2-thiazole-4-carboxamide], the IC50 in assay [1] was more than 20 µM; in assay [2], 3.2 µM. Turning to `Cc1nsc(Nc2cncc(Cl)n2)c1C(=O)Nc1ccc(F)c(F)c1` [Example 71, 5-[(6-Chloropyrazin-2-yl)amino]-N-(3,4-difluorophenyl)-3-methyl-1,2-thiazole-4-carboxamide], the values for the IC50 in assay [1] and in assay [2] were more than 20 µM and 0.38 µM, respectively. The like results for `COc1ccc(NC(=O)c2c(C)nsc2Nc2nc3ccc(C)cc3s2)cn1` [Example 90, N-(6-Methoxypyridin-3-yl)-3-methyl-5-[(6-methyl-1,3-benzothiazol-2-yl)amino]-1,2-thiazole-4-carboxamide] were, in that order, more than 20 µM and 10 µM.
